From US20260327224A1, “SUBSTITUTED PYRIDOTRIAZOLE COMPOUND, AND PREPARATION METHOD THEREFOR AND USE THEREOF” (ORIGIANT PHARMACEUTICAL CO., LTD., priority 2023, published 2026)

What follows are compounds tested against T1, RIPK1 kinase (Homo sapiens, UniProt Q13546) (assay: In vitro RIPK1 kinase assay (Eurofins Kinase Profiler)). Settings: Inhibitory Activity Against RIPK1 Kinase.
T1 construct: Eurofins
T1 sequence (Q13546 1-671): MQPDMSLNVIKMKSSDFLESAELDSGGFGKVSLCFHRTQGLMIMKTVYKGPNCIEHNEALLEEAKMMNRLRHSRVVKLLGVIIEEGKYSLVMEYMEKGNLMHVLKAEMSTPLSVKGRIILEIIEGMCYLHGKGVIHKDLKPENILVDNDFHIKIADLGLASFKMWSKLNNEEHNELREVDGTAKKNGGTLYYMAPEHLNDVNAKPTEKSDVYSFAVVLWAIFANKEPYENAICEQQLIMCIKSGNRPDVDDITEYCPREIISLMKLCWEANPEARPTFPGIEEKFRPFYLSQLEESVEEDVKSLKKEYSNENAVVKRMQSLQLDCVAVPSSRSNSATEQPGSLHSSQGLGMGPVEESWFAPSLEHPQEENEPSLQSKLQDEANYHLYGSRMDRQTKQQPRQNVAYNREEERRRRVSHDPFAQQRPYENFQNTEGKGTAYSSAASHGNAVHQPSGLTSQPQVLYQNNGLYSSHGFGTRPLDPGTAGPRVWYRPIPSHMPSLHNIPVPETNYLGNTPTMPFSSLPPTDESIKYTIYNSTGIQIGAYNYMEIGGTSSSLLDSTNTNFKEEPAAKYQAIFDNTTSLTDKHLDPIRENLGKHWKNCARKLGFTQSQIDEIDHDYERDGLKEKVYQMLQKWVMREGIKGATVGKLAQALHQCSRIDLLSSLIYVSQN
Assay type: biochemical
Method: In Vitro RIPK1 Kinase Assay:
This assay was completed using the Kinase Profiler service provided by Eurofins. The experimental method was as follows: The small molecule compound to be tested (0.001-10 M) and the protein kinase to be tested were incubated with a buffer containing a substrate, 10 mM magnesium acetate, and [γ-^33P-ATP]. The reaction was initiated by adding a Mg\ATPmix. After incubation at room temperature for a period of time, a 3% phosphate solution was added to the buffer to terminate the reaction. Subsequently, 10 μL of the reaction mixture was quantitatively pipetted and dropped onto P30 filter paper. The paper was washed three times with 75 mM phosphate solution and once with methanol. After drying, scintillation fluid was added for scinticounting. The inhibitory activity of the compound was expressed as the half-maximal inhibitory concentration (IC50). The IC50 values were derived by fitting the inhibition rates corresponding to the respective concentration gradients.

SMILES	IC50 [nM]
C[C@H](NC(=O)c1cn(C)c2ccc(-c3ccn4nc(NC(=O)CN5CCOCC5(C)C)nc4c3)cc12)c1ccc(F)cc1 [Compound 32]	10 to 100

Each compound was assayed on HT-29 cells (colon cancer cells) (assay: In vitro assay for protection of HT-29 cells from necroptosis (TNFα/Smac mimetic/Z-VAD-FMK, CCK-8)). Settings: Homo sapiens, Protective Activity Against Necroptosis, TNFα/Smac mimetic/Z-VAD-FMK induced, 24 h.
Assay type: cell-based
Procedure, shortened: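 Cells seeded overnight received compound in triplicate, then were induced with TNFα/Smac mimetic/Z-VAD-FMK for 24 h. Viability was read by CCK-8 absorbance at 495 nm after 1-3 h; protection rate normalized to solvent and medium-only controls, EC50 from fitted curve.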

SMILES	EC50 [nM]
C[C@H](NC(=O)c1cn(C)c2ccc(-c3ccn4nc(NC(=O)CN5CCOCC5(C)C)nc4c3)cc12)c1ccc(F)cc1 [Compound 32]	< 1
C[C@H](NC(=O)c1cn(C)c2ccc(-c3ccn4nc(NC(=O)CN5CC[C@H](O)C5)nc4c3)cc12)c1ccc(F)cc1 [Compound 41]	< 1
CN1CC[C@@H](C(=O)Nc2nc3cc(-c4ccc5c(c4)c(C(=O)N[C@@H](CF)c4ccc(F)cc4)cn5C)ccn3n2)C1 [Compound 100]	< 1
Cn1cc(C(=O)N2CCC[C@H]2c2ccc(F)cc2)c2cc(-c3ccn4nc(NC(=O)N5CCOCC5)nc4c3)ccc21 [Compound 153]	< 1
Cn1cc(C(=O)NC2(c3ccc(F)cc3)COC2)c2cc(-c3ccn4nc(NC(=O)C5CC5)nc4c3)ccc21 [Compound 148]	10 to 100
C[C@H](NC(=O)c1cn(C)c2ccc(-c3ccn4nc(NC(=O)CN5CC(C)(C#N)C5)nc4c3)cc12)c1ccc(F)cc1 [Compound 29]	< 1
Cn1cc(C(=O)N[C@H]2CCCc3ccc(F)cc32)c2cc(-c3ccn4nc(NC(=O)[C@H]5CCCO5)nc4c3)ccc21 [Compound 146]	10 to 100
C[C@H](NC(=O)c1cn(C)c2ccc(-c3ccn4nc(NC(=O)C5CCOC5)nc4c3)cc12)c1ccc(F)cc1 (stereo partly drawn) [Compound 106]	< 1
C[C@H](NC(=O)c1cn(C)c2ccc(-c3ccn4nc(NC(=O)CN5CC[C@H](F)C5)nc4c3)cc12)c1ccc(F)cc1 [Compound 21]	< 1
CC1CN(CC(=O)Nc2nc3cc(-c4ccc5c(c4)c(C(=O)N[C@@H](C)c4ccc(Cl)cc4)cn5C)ccn3n2)CCO1 (stereo partly drawn) [Compound 84]	< 1
C[C@H](NC(=O)c1cn(C)c2ccc(-c3ccn4nc(NC(=O)CN5CCOC[C@@H]5C)nc4c3)cc12)c1ccc(F)cc1 [Compound 60]	< 1
C[C@H](NC(=O)c1cn(C)c2ccc(-c3ccn4nc(NC(=O)CN(C)C)nc4c3)cc12)c1ccc(Cl)cc1 [Compound 78]	< 1
C[C@H](NC(=O)c1cn(C)c2ccc(-c3ccn4nc(NC(=O)CN5CCOCC5)nc4c3)cc12)c1ccc(Cl)cc1 [Compound 83]	< 1
Cn1cc(C(=O)N[C@@H](CF)c2ccc(F)cc2)c2cc(-c3ccn4nc(NC(=O)C5(C)CCC5)nc4c3)ccc21 [Compound 105]	10 to 100
